Measured values reported in patent US20100137239A1, “GEMCITABINE COMBINATION THERAPY” (GLOUCESTER PHARMACEUTICALS, priority 2006, published 2010).
Values joined by “and” are separate entries in the source; they are usually repeats but may differ in a detail not shown here. Equal values may be shown once.

Tests used:
acetylated histone 4 = assay: Immunoblot of acetylated histone 4 in PANC-1 xenograft tumors; assay type: in vivo, human; conditions: FK228 5 mg/kg Q4Dx3; gemcitabine 80 mg/kg Q3Dx4; tumors at study completion; vs controls
Method: Abstract: To examine activity and mechanism of FK228, antitumor efficacy was tested in PANC-1 pancreatic adenocarcinoma model representing transformed Ras, either as a single agent or in combination with gemcitabine. Following PANC-1 study completion, tumor and sera were obtained from: • the vehicle control; • FK228 dosed at 5 mg/kg once every four days for three treatments (Q4Dx3); • Gemcitabine at 80 mg/kg (Q3Dx4); and • the drug combination. Expression of c-Myc, acetylated histones 3 and 4, and p21^waf1 was compared between control and FK228 groups by immunoblotting and was quantified following actin normalization. Serum levels of putative tumor products b-FGF and MMP-2 were quantified by human-specific ELISA. […]
Tissue Biomarkers: Tumor levels of acetylated histone-4, histone-4, c-Myc, p21waf and β-actin were quantified by immunoblotting as described. […] The chemiluminescence signal was captured by autoradiography, quantified by densitometry and expressed as a ratio of actin in each sample lane. For each biomarker, means and standard errors were calculated in each treatment group. […]
Expression of c-Myc, acetylated histones 3 and 4, and p21^waf1 was compared between control and FK228 groups by immunoblotting and was quantified following actin normalization. Serum levels of putative tumor products b-FGF and MMP-2 were quantified by human-specific ELISA. […]

[1] = BxPC-3 study: animal weight and drug toxicity
From the text: Model Information—Female nude mice (nu/nu) between 5 and 6 weeks of age weighing approximately 20 grams were obtained from Harlan, Inc. (Madison, Wis.). PANC-1, obtained from the ATCC, is a pancreas tumor cell line originating from a person^(1-2). BxPC-3, obtained from the American Type Culture Collection (ATCC), is a pancreas tumor cell line originating from a person^(3-4). PANC-1 Study: Animals were implanted subcutaneously (SC) by trocar with fragments of PANC-1 harvested from SC growing tumors in nude mice hosts. When tumors grew to approximately 135 cubic millimeters (mm^3) in size (17 days following implantation, animals were pair-matched by tumor size into treatment and control groups; each treatment group contained nine mice. BxPC-3 Study: Animals were implanted subcutaneously (SC) by trocar with fragments of BxPC-3 harvested from SC growing tumors in nude mice hosts. When tumors grew to approximately 85 cubic millimeters (mm^3) in size (19 days following implantation), animals were pair-matched by tumor size into treatment and control groups; each treatment group contained nine mice. Animals in both studies were ear-tagged and followed individually throughout the experiment.
Study Design and Dosing—Initial doses were administered on Day 1 following pair-matching; both experiments were carried out as tumor growth inhibition (TGT) studies. Animals were dosed intravenously (IV) via tail vein with FK228 once every four days for three treatments (Q4Dx3) or by intraperitoneal (IP) injection with gemcitabine once every three days for four treatments (Q3Dx4), either alone or in combination, at the doses listed below (Table 1). To serve as a negative control, FK228 vehicle (2% ethanol, 8% propylene glycol, 90% 0.9% saline) was injected on a Q4Dx3 schedule.
Animal Weights—Individual and group mean weights ±SD and percent weight change through Day 25 (PANC-1) or Day 29 (BxPC-3) were recorded twice weekly until study completion beginning Day 1. Final group mean weights ±SD and group nadir values are reported; weight data from individual animals experiencing technical or drug-related deaths was censored from final group calculations.
Moribundity/Mortality—Animals were observed twice weekly for general moribundity and daily for mortality. Animal deaths were assessed as drug-related or technical based on factors including gross observation and weight loss; reported animal death information includes type, number, and day of death for each group.
Statistics—Statistical analyses were carried out between treated and control groups comparing final weight, percent weight change, and tumor growth inhibition (Appendix III). For these groups, a two-tailed One-Way Analysis of Variance (ANOVA) followed by the Dunnett multiple comparisons test was employed. All analyses are performed using GraphPad Prism® software (version 4.0). Weight and tumor data from individual animals experiencing technical or drug-related deaths was censored from analysis.

[2] = FK228 2.5 mg/kg IV Q4Dx3, 2.5 mg/kg
[3] = FK228 5 mg/kg IV Q4Dx3, 5 mg/kg

Row | SMILES | increase of acetylated histone 4 (acetylated histone 4) | FINAL WEIGHT (DAY 29) % CHANGE ([1]; FK228 2.5 mg/kg IV Q4Dx3) | WEIGHT NADIR % CHANGE ([1]; FK228 2.5 mg/kg IV Q4Dx3) [%] | WEIGHT NADIR DAY ([1]; FK228 2.5 mg/kg IV Q4Dx3) | DRUG DEATHS TOTAL [1, 2] | FINAL WEIGHT (DAY 29) MEAN(G) ± SD [1, 2] [G] | FINAL WEIGHT (DAY 29) % CHANGE ([1]; FK228 5 mg/kg IV Q4Dx3) | WEIGHT NADIR % CHANGE ([1]; FK228 5 mg/kg IV Q4Dx3) [%] | WEIGHT NADIR DAY ([1]; FK228 5 mg/kg IV Q4Dx3) | DRUG DEATHS TOTAL [1, 3] | FINAL WEIGHT (DAY 29) MEAN(G) ± SD [1, 3] [G] | DRUG DEATHS TOTAL ([1]; Gemcitabine 40 mg/kg IP Q3Dx4) | FINAL WEIGHT (DAY 29) % CHANGE ([1]; Gemcitabine 40 mg/kg IP Q3Dx4) | weight loss (nadir) ([1]; Gemcitabine 40 mg/kg IP Q3Dx4) | DRUG DEATHS TOTAL ([1]; Gemcitabine 80 mg/kg IP Q3Dx4) | FINAL WEIGHT (DAY 29) % CHANGE ([1]; Gemcitabine 80 mg/kg IP Q3Dx4) | FINAL WEIGHT (DAY 29) MEAN(G) ± SD ([1]; Gemcitabine 80 mg/kg IP Q3Dx4) | WEIGHT NADIR % CHANGE ([1]; Gemcitabine 80 mg/kg IP Q3Dx4) [%] | WEIGHT NADIR DAY ([1]; Gemcitabine 80 mg/kg IP Q3Dx4)
1 | C/C=C1\NC(=O)[C@H]2CSSCC/C=C/[C@H](CC(=O)N[C@H](C(C)C)C(=O)N2)OC(=O)[C@H](C(C)C)NC1=O [FK228, romidepsin] | over 2 fold | +10% | −5 | 11 | 0/9 and 0 | 25±2 | +7% | −15 | 11 | 0/9 and 0 | 24±1 | – | – | – | – | – | – | – | –
2 | Nc1ccn([C@@H]2O[C@H](CO)[C@@H](O)C2(F)F)c(=O)n1 [Gemcitabine, gemcitabine] | on the control level | – | – | – | – | – | – | – | – | – | – | 0/9 and 0 | +9% | No weight loss | 0/9 and 0 | +1% | 22±4 G and 22 + 4 G | −9 | 11
